# Where “and” joins values, the source holds several entries; their conditions need not be identical. Identical values can stand only once.
# Experiment: Effect of temperature on vasopressin formulations: HPLC vasopressin assay and impurities on storage (Example 8)
# Assay type: physicochemical
# Procedure: To analyze degradation products of vasopressin that can be present in an illustrative formulation of vasopressin, gradient HPLC was performed to separate vasopressin from related peptides and formulation components. TABLE 2 below depicts the results of the experiment detailing the chemical formula, relative retention time (RRT), molar mass, and structure of vasopressin and detected impurities.
# Vasopressin was detected in the eluent using UV absorbance. The concentration of vasopressin in the sample was determined by the external standard method, where the peak area of vasopressin in sample injections was compared to the peak area of vasopressin reference standards in a solution of known concentration. The concentrations of related peptide impurities in the sample were also determined using the external standard method, using the vasopressin reference standard peak area and a unit relative response factor. An impurities marker solution was used to determine the relative retention times of identified related peptides at the time of analysis.
# To test the effect of temperature on the stability of vasopressin formulation, solutions containing 20 units/mL vasopressin and chlorobutanol, adjusted to pH 3.5 with acetic acid, were prepared. One mL of each vasopressin formulations was then filled into 3 cc vials. Each Vasopressin Formulation was stored either inverted or upright for at least three months, up to 24 months, at: (i) 5° C.; (ii) 25° C. and 60% relative humidity; or (iii) 40° C. and 75% humidity, and the amount of vasopressin (U/mL) and % total impurities were measured periodically. TABLES 7-12 below display the results of the experiments at 5° C. The results of the experiments at 25° C. are included in TABLES 13-18. All of the experiments were performed in triplicate. The results of the experiments at 40° C. are included in TABLES 19-24. For each temperature tested, three lots of the vasopressin formulation were stored for 24 months (5° C. and 25° C.) and 3 months (40° C.), and measurements were taken at regular intervals during the testing periods. “NMT” as used in the tables denotes “not more than.”
# Experiments were also conducted on the same samples above over the course of the experiments to measure the amount of individual impurities in the samples, pH of the samples, chlorobutanol content, particulate matter, antimicrobial effectiveness, and bacterial endotoxin levels (TABLES 25-42). (NR=no reading; ND=not determined; UI=unidentified impurity).
# [1] = Upright, 40° C. (75% humidity), 1 month
# [2] = Upright, 40° C. (75% humidity), 2 months
# [3] = Upright, 40° C. (75% humidity), 3 months
# [4] = Upright, 40° C. (75% humidity), Initial
# [5] = inverted, 5° C., 1 month, listed as AVP
# [6] = inverted, 5° C., 2 months, listed as AVP
# [7] = inverted, 5° C., 3 months, listed as AVP
# [8] = inverted, 5° C., 6 months, listed as AVP
# [9] = inverted, 5° C., 9 months, listed as AVP
# [10] = inverted, 5° C., 12 months, listed as AVP
# [11] = inverted, 5° C., 18 months, listed as AVP
# [12] = inverted, 5° C., 24 months, listed as AVP
compound,measurement,setting,value
"NC(=O)CC[C@@H]1NC(=O)[C@H](Cc2ccccc2)NC(=O)[C@H](Cc2ccc(O)cc2)NC(=O)[C@@H](N)CSSC[C@@H](C(=O)N2CCC[C@H]2C(=O)N[C@@H](CCCN=C(N)N)C(=O)NCC(N)=O)NC(=O)[C@H](CC(N)=O)NC1=O [Vasopressin, Cyclo (1-6) L-Cysteinyl-L-Tyrosyl-L-Phenylalanyl-L-Glutaminyl-L-Asparaginyl-L-Cysteinyl-L-Prolyl-L-Arginyl-L-Glycinamide]",effect of upright or inverted storage position on stability,,did not markedly affect the stability
same,Total Impurities,[1],3.6% and 3.5%
same,Vasopressin Assay,[1],18.9 U/mL and 19.2 U/mL
same,Total Impurities,[2],7.2%
same,Vasopressin Assay,[2],18.5 U/mL and 18.7 U/mL and 18.3 U/mL
same,Total Impurities,[3],10.3%
same,Vasopressin Assay,[3],17.2 U/mL and 17.4 U/mL and 17.5 U/mL
same,Total Impurities,[4],1.1% and 1.3%
same,Vasopressin Assay,[4],19.8 U/mL and 20.1 U/mL and 19.9 U/mL
same,Related Substances: Acetyl-AVP,"inverted, 5° C., 1 month",0.2% and 0.3%
same,Related Substances: Asp5-AVP,"inverted, 5° C., 1 month",0.1%
same,Related Substances: SEQ ID NO.: 2,"inverted, 5° C., 1 month",0.5%
same,Related Substances: SEQ ID NO.: 4,"inverted, 5° C., 1 month",0.6% and 0.5%
same,Related Substances: SEQ ID NO.: 10,"inverted, 5° C., 1 month",0.3%
same,Related Substances: UI-0.75-0.78,"inverted, 5° C., 1 month",0.2%
same,Related Substances: UI-0.83-0.84,"inverted, 5° C., 1 month",0.1%
same,Related Substances: UI-1.02-1.03,"inverted, 5° C., 1 month",0.2%
same,Related Substances: UI-1.03,"inverted, 5° C., 1 month",0.2%
same,Vasopressin (AVP) Assay,"inverted, 5° C., 1 month",19.4 U/mL and 19.7 U/mL
same,Total Impurities,[5],2.0% and 2.2% and 1.9%
same,Vasopressin (AVP) Assay,[5],19.4 U/mL and 19.7 U/mL
same,Related Substances: Acetyl-AVP,"inverted, 5° C., 2 months",0.3%
same,Related Substances: Asp5-AVP,"inverted, 5° C., 2 months",0.1%
same,Related Substances: SEQ ID NO.: 2,"inverted, 5° C., 2 months",0.6% and 0.5%
same,Related Substances: SEQ ID NO.: 4,"inverted, 5° C., 2 months",0.6% and 0.5%
same,Related Substances: SEQ ID NO.: 10,"inverted, 5° C., 2 months",0.3%
same,Related Substances: UI-0.75-0.78,"inverted, 5° C., 2 months",0.2%
same,Related Substances: UI-0.83-0.84,"inverted, 5° C., 2 months",0.1%
same,Related Substances: UI-0.84,"inverted, 5° C., 2 months",0.1%
same,Related Substances: UI-1.02-1.03,"inverted, 5° C., 2 months",0.2%
same,Related Substances: UI-1.03,"inverted, 5° C., 2 months",0.2%
same,Related Substances: UI-2.05,"inverted, 5° C., 2 months",0.1%
same,Vasopressin (AVP) Assay,"inverted, 5° C., 2 months",19.4 U/mL and 19.7 U/mL and 19.6 U/mL
same,Total Impurities,[6],2.1% and 2.3% and 2.0%
same,Vasopressin (AVP) Assay,[6],19.4 U/mL and 19.7 U/mL and 19.6 U/mL
same,Related Substances: Acetyl-AVP,"inverted, 5° C., 3 months",0.3%
same,Related Substances: Asp5-AVP,"inverted, 5° C., 3 months",0.1%
same,Related Substances: SEQ ID NO.: 2,"inverted, 5° C., 3 months",0.6% and 0.5%
same,Related Substances: SEQ ID NO.: 4,"inverted, 5° C., 3 months",0.7% and 0.6%
same,Related Substances: SEQ ID NO.: 10,"inverted, 5° C., 3 months",0.4%
same,Related Substances: UI-0.75-0.78,"inverted, 5° C., 3 months",0.2%
same,Related Substances: UI-1.02-1.03,"inverted, 5° C., 3 months",0.3%
same,Related Substances: UI-1.03,"inverted, 5° C., 3 months",0.3%
same,Related Substances: UI-1.76,"inverted, 5° C., 3 months",0.1%
same,Vasopressin (AVP) Assay,"inverted, 5° C., 3 months",19.3 U/mL and 19.7 U/mL
same,Total Impurities,[7],2.3% and 2.4% and 2.2%
same,Vasopressin (AVP) Assay,[7],19.3 U/mL and 19.7 U/mL
same,Related Substances: Acetyl-AVP,"inverted, 5° C., 6 months",0.2% and 0.3%
same,Related Substances: Asp5-AVP,"inverted, 5° C., 6 months",0.1%
same,Related Substances: SEQ ID NO.: 2,"inverted, 5° C., 6 months",0.6% and 0.5%
same,Related Substances: SEQ ID NO.: 4,"inverted, 5° C., 6 months",0.7% and 0.6%
same,Related Substances: SEQ ID NO.: 10,"inverted, 5° C., 6 months",0.3%
same,Related Substances: UI-0.83-0.84,"inverted, 5° C., 6 months",0.1%
same,Related Substances: UI-1.02-1.03,"inverted, 5° C., 6 months",0.2%
same,Related Substances: UI-1.03,"inverted, 5° C., 6 months",0.2%
same,Vasopressin (AVP) Assay,"inverted, 5° C., 6 months",19.5 U/mL and 19.9 U/mL and 19.8 U/mL
same,Total Impurities,[8],2.2% and 2.1% and 2.0%
same,Vasopressin (AVP) Assay,[8],19.5 U/mL and 19.9 U/mL and 19.8 U/mL
same,Related Substances: Acetyl-AVP,"inverted, 5° C., 9 months",0.2% and 0.3%
same,Related Substances: Asp5-AVP,"inverted, 5° C., 9 months",0.1%
same,Related Substances: SEQ ID NO.: 2,"inverted, 5° C., 9 months",0.6%
same,Related Substances: SEQ ID NO.: 4,"inverted, 5° C., 9 months",0.7%
same,Related Substances: SEQ ID NO.: 10,"inverted, 5° C., 9 months",0.3%
same,Related Substances: UI-0.75-0.78,"inverted, 5° C., 9 months",0.1%
same,Related Substances: UI-1.02-1.03,"inverted, 5° C., 9 months",0.2%
same,Related Substances: UI-1.03,"inverted, 5° C., 9 months",0.2%
same,Vasopressin (AVP) Assay,"inverted, 5° C., 9 months",19.4 U/mL and 19.7 U/mL
same,Total Impurities,[9],2.3% and 2.1%
same,Vasopressin (AVP) Assay,[9],19.4 U/mL and 19.7 U/mL
same,Related Substances: Acetyl-AVP,"inverted, 5° C., 12 months",0.3%
same,Related Substances: Asp5-AVP,"inverted, 5° C., 12 months",0.2% and 0.1%
same,Related Substances: SEQ ID NO.: 2,"inverted, 5° C., 12 months",0.7% and 0.6%
same,Related Substances: SEQ ID NO.: 4,"inverted, 5° C., 12 months",0.8% and 0.7%
same,Related Substances: SEQ ID NO.: 10,"inverted, 5° C., 12 months",0.4%
same,Related Substances: UI-0.75-0.78,"inverted, 5° C., 12 months",0.2%
same,Related Substances: UI-1.02-1.03,"inverted, 5° C., 12 months",0.3%
same,Related Substances: UI-1.03,"inverted, 5° C., 12 months",0.3%
same,Vasopressin (AVP) Assay,"inverted, 5° C., 12 months",19.5 U/mL and 19.8 U/mL and 19.9 U/mL
same,Total Impurities,[10],2.6% and 2.7% and 2.4%
same,Vasopressin (AVP) Assay,[10],19.5 U/mL and 19.8 U/mL and 19.9 U/mL
same,Related Substances: Acetyl-AVP,"inverted, 5° C., 18 months",0.3%
same,Related Substances: Asp5-AVP,"inverted, 5° C., 18 months",0.2%
same,Related Substances: SEQ ID NO.: 2,"inverted, 5° C., 18 months",0.8%
same,Related Substances: SEQ ID NO.: 4,"inverted, 5° C., 18 months",0.9% and 0.8%
same,Related Substances: SEQ ID NO.: 10,"inverted, 5° C., 18 months",0.4%
same,Related Substances: UI-0.75-0.78,"inverted, 5° C., 18 months",0.2%
same,Related Substances: UI-1.02-1.03,"inverted, 5° C., 18 months",0.3%
same,Related Substances: UI-1.03,"inverted, 5° C., 18 months",0.3%
same,Vasopressin (AVP) Assay,"inverted, 5° C., 18 months",19.4 U/mL and 19.7 U/mL and 19.8 U/mL
same,Total Impurities,[11],2.9% and 2.6%
same,Vasopressin (AVP) Assay,[11],19.4 U/mL and 19.7 U/mL and 19.8 U/mL
same,Related Substances: Acetyl-AVP,"inverted, 5° C., 24 months",0.3%
same,Related Substances: Asp5-AVP,"inverted, 5° C., 24 months",0.2%
same,Related Substances: SEQ ID NO.: 2,"inverted, 5° C., 24 months",0.9% and 0.8%
same,Related Substances: SEQ ID NO.: 4,"inverted, 5° C., 24 months",1.0% and 0.9%
same,Related Substances: SEQ ID NO.: 10,"inverted, 5° C., 24 months",0.3%
same,Related Substances: UI-0.75-0.78,"inverted, 5° C., 24 months",0.2%
same,Related Substances: UI-0.83-0.84,"inverted, 5° C., 24 months",0.1%
same,Related Substances: UI-1.02-1.03,"inverted, 5° C., 24 months",0.3% and 0.2%
same,Related Substances: UI-1.03,"inverted, 5° C., 24 months",0.2%
same,Related Substances: UI-1.67,"inverted, 5° C., 24 months",0.2%
same,Vasopressin (AVP) Assay,"inverted, 5° C., 24 months",19.3 U/mL and 19.5 U/mL
same,Total Impurities,[12],2.9% and 2.8%
same,Vasopressin (AVP) Assay,[12],19.3 U/mL and 19.5 U/mL
